Measurements: the CheMixHub viscosity set
± gives the uncertainty stated by the source.

Assay: xn = mol fraction of the nth substance listed

CC(C)(C)N + CCOC(C)=O
303.15 K, 101 kPa
Details | viscosity [mPa·s]
x1 = 0.168 | 0.4142 ± 0.0037
x1 = 0.2336 | 0.4185 ± 0.0037
x1 = 0.3514 | 0.424 ± 0.0037
x1 = 0.5046 | 0.4329 ± 0.0038
x1 = 0.5951 | 0.4363 ± 0.0038
x1 = 0.6618 | 0.4371 ± 0.0038
x1 = 0.8008 | 0.442 ± 0.0039
x1 = 0.8723 | 0.4431 ± 0.0039

CCCCCCCCO + CCOC(C)=O
viscosity [mPa·s]
Details | 298.15 K | 303.15 K | 308.15 K | 313.15 K
101 kPa, x1 = 0.0646 | 0.512 ± 0.031 | 0.484 ± 0.029 | 0.455 ± 0.027 | 0.429 ± 0.026
101 kPa, x1 = 0.1344 | 0.629 ± 0.038 | 0.589 ± 0.036 | 0.55 ± 0.033 | 0.513 ± 0.031
101 kPa, x1 = 0.2103 | 0.783 ± 0.047 | 0.727 ± 0.044 | 0.673 ± 0.041 | 0.623 ± 0.038
101 kPa, x1 = 0.2928 | 0.991 ± 0.06 | 0.911 ± 0.055 | 0.834 ± 0.05 | 0.766 ± 0.046
101 kPa, x1 = 0.3832 | 1.279 ± 0.077 | 1.164 ± 0.07 | 1.054 ± 0.064 | 0.958 ± 0.058
101 kPa, x1 = 0.4823 | 1.689 ± 0.1 | 1.519 ± 0.092 | 1.36 ± 0.082 | 1.223 ± 0.074
101 kPa, x1 = 0.5917 | 2.298 ± 0.14 | – | 1.806 ± 0.11 | 1.605 ± 0.097
101 kPa, x1 = 0.713 | 3.246 ± 0.2 | 2.844 ± 0.17 | 2.482 ± 0.15 | 2.179 ± 0.13
101 kPa, x1 = 0.8483 | 4.801 ± 0.29 | 4.144 ± 0.25 | 3.563 ± 0.21 | 3.083 ± 0.19
101.33 kPa, x2 = 0.141 | 4.383 ± 0.19 | 3.809 ± 0.17 | 3.324 ± 0.15 | –
101.33 kPa, x2 = 0.2701 | 2.825 ± 0.13 | 2.512 ± 0.11 | 2.215 ± 0.1 | –
101.33 kPa, x2 = 0.3878 | 1.985 ± 0.091 | 1.777 ± 0.083 | 1.596 ± 0.075 | –
101.33 kPa, x2 = 0.4964 | 1.449 ± 0.069 | 1.292 ± 0.062 | 1.152 ± 0.056 | –
101.33 kPa, x2 = 0.5965 | 1.088 ± 0.053 | 0.992 ± 0.049 | 0.907 ± 0.045 | –
101.33 kPa, x2 = 0.6891 | 0.841 ± 0.043 | 0.798 ± 0.041 | 0.724 ± 0.038 | –
101.33 kPa, x2 = 0.7641 | 0.712 ± 0.037 | 0.653 ± 0.034 | 0.606 ± 0.032 | –
101.33 kPa, x2 = 0.8552 | 0.585 ± 0.032 | 0.542 ± 0.03 | 0.51 ± 0.028 | –
101.33 kPa, x2 = 0.9301 | 0.496 ± 0.028 | 0.468 ± 0.026 | 0.446 ± 0.026 | –

CCOC(F)(F)C(F)(C(F)(F)F)C(F)(F)F + CCOC(F)(F)C(F)(F)C(F)(F)C(F)(F)F
100 kPa, x2 = 0.422
Details | viscosity [mPa·s]
298.16 K | 0.6423 ± 0.014
303.18 K | 0.5987 ± 0.013

CC(C)(C)N + CCOCCO
308.15 K, 101 kPa
Details | viscosity [mPa·s]
x2 = 0.1082 | 0.5474 ± 0.056
x2 = 0.2145 | 0.6798 ± 0.07
x2 = 0.3189 | 0.8102 ± 0.083
x2 = 0.4214 | 0.9309 ± 0.096
x2 = 0.5221 | 1.046 ± 0.11
x2 = 0.6211 | 1.149 ± 0.12
x2 = 0.7182 | 1.245 ± 0.13
x2 = 0.8138 | 1.327 ± 0.14
x2 = 0.9077 | 1.399 ± 0.14

BrC(Br)Br + CN(C)C=O
Details | viscosity [mPa·s]
298 K, 101.3 kPa, x1 = 0.1418 | 1.075 ± 0.014
298 K, 101.3 kPa, x1 = 0.2704 | 1.355 ± 0.018
298 K, 101.3 kPa, x1 = 0.463 | 1.794 ± 0.024
298 K, 101.3 kPa, x1 = 0.6145 | 2.007 ± 0.026
298 K, 101.3 kPa, x1 = 0.7144 | 2.037 ± 0.027
298 K, 101.3 kPa, x1 = 0.818 | 2.016 ± 0.026
298.15 K, 101 kPa, x1 = 0.1458 | 1.048 ± 0.01
298.15 K, 101 kPa, x1 = 0.1971 | 1.237 ± 0.011
298.15 K, 101 kPa, x1 = 0.2942 | 1.486 ± 0.014
298.15 K, 101 kPa, x1 = 0.3961 | 1.703 ± 0.016
298.15 K, 101 kPa, x1 = 0.4962 | 1.956 ± 0.018
298.15 K, 101 kPa, x1 = 0.5972 | 2.102 ± 0.019
298.15 K, 101 kPa, x1 = 0.6959 | 2.122 ± 0.019
298.15 K, 101 kPa, x1 = 0.7985 | 2.147 ± 0.019
298.15 K, 101 kPa, x1 = 0.8992 | 2.074 ± 0.019
303.15 K, 101 kPa, x1 = 0.1458 | 0.9843 ± 0.0094
303.15 K, 101 kPa, x1 = 0.1971 | 1.162 ± 0.011
303.15 K, 101 kPa, x1 = 0.2942 | 1.371 ± 0.013
303.15 K, 101 kPa, x1 = 0.3961 | 1.567 ± 0.015
303.15 K, 101 kPa, x1 = 0.4962 | 1.793 ± 0.017
303.15 K, 101 kPa, x1 = 0.5972 | 1.927 ± 0.018
303.15 K, 101 kPa, x1 = 0.6959 | 1.953 ± 0.018
303.15 K, 101 kPa, x1 = 0.7985 | 1.966 ± 0.018
303.15 K, 101 kPa, x1 = 0.8992 | 1.934 ± 0.018
308.15 K, 101 kPa, x1 = 0.1458 | 0.9091 ± 0.0089
308.15 K, 101 kPa, x1 = 0.1971 | 1.066 ± 0.01
308.15 K, 101 kPa, x1 = 0.2942 | 1.267 ± 0.012
308.15 K, 101 kPa, x1 = 0.3961 | 1.443 ± 0.013
308.15 K, 101 kPa, x1 = 0.4962 | 1.643 ± 0.015
308.15 K, 101 kPa, x1 = 0.5972 | 1.765 ± 0.017
308.15 K, 101 kPa, x1 = 0.6959 | 1.801 ± 0.017
308.15 K, 101 kPa, x1 = 0.7985 | 1.839 ± 0.017
308.15 K, 101 kPa, x1 = 0.8992 | 1.797 ± 0.016
313.15 K, 101 kPa, x1 = 0.1458 | 0.8479 ± 0.0082
313.15 K, 101 kPa, x1 = 0.1971 | 1 ± 0.0098
313.15 K, 101 kPa, x1 = 0.2942 | 1.173 ± 0.011
313.15 K, 101 kPa, x1 = 0.3961 | 1.329 ± 0.012
313.15 K, 101 kPa, x1 = 0.4962 | 1.513 ± 0.015
313.15 K, 101 kPa, x1 = 0.5972 | 1.622 ± 0.016
313.15 K, 101 kPa, x1 = 0.6959 | 1.66 ± 0.015
313.15 K, 101 kPa, x1 = 0.7985 | 1.705 ± 0.016
313.15 K, 101 kPa, x1 = 0.8992 | 1.679 ± 0.015
318 K, 101.33 kPa, x1 = 0.1317 | 0.819 ± 0.039
318 K, 101.33 kPa, x1 = 0.2705 | 1.046 ± 0.039
318 K, 101.33 kPa, x1 = 0.4636 | 1.313 ± 0.039
318 K, 101.33 kPa, x1 = 0.6142 | 1.471 ± 0.04
318 K, 101.33 kPa, x1 = 0.7204 | 1.518 ± 0.04
318 K, 101.33 kPa, x1 = 0.8296 | 1.519 ± 0.04

C=Cc1ccccc1 + CN(C)C=O
viscosity [mPa·s], 101.33 kPa
Details | x1 = 0.109 | x1 = 0.2013 | x1 = 0.2959 | x1 = 0.3998 | x1 = 0.5052 | x1 = 0.6012 | x1 = 0.6979 | x1 = 0.8049 | x1 = 0.8976
298.15 K | 0.831 ± 0.006 | 0.845 ± 0.006 | 0.854 ± 0.006 | 0.858 ± 0.006 | 0.86 ± 0.006 | 0.856 ± 0.006 | 0.847 ± 0.006 | 0.825 ± 0.006 | 0.794 ± 0.005
303.15 K | 0.78 ± 0.006 | 0.79 ± 0.006 | 0.801 ± 0.006 | 0.804 ± 0.006 | 0.802 ± 0.006 | 0.798 ± 0.006 | 0.79 ± 0.005 | 0.768 ± 0.005 | 0.735 ± 0.005
308.15 K | 0.732 ± 0.006 | 0.742 ± 0.006 | 0.749 ± 0.006 | 0.75 ± 0.005 | 0.749 ± 0.005 | 0.746 ± 0.005 | 0.739 ± 0.005 | 0.717 ± 0.005 | 0.685 ± 0.005

CC(=O)c1ccc(Cl)cc1 + CN(C)c1ccccc1
viscosity [mPa·s], 101 kPa
Details | 303.15 K | 308.15 K
x2 = 0.0685 | 2.238 ± 0.027 | 2.175 ± 0.027
x2 = 0.1369 | 2.129 ± 0.026 | 2.065 ± 0.025
x2 = 0.2085 | 2.019 ± 0.025 | 1.954 ± 0.024
x2 = 0.2801 | 1.913 ± 0.024 | 1.849 ± 0.023
x2 = 0.3517 | 1.816 ± 0.023 | 1.752 ± 0.022
x2 = 0.4754 | 1.663 ± 0.021 | 1.597 ± 0.021
x2 = 0.551 | 1.576 ± 0.02 | 1.511 ± 0.02
x2 = 0.6023 | 1.53 ± 0.02 | 1.46 ± 0.019
x2 = 0.6538 | 1.478 ± 0.02 | 1.409 ± 0.019
x2 = 0.7316 | 1.404 ± 0.019 | 1.335 ± 0.018
x2 = 0.7852 | 1.355 ± 0.018 | 1.288 ± 0.018
x2 = 0.8376 | 1.307 ± 0.018 | 1.243 ± 0.017
x2 = 0.9175 | 1.24 ± 0.017 | 1.177 ± 0.017
